According to paper PMC10117764, “The roles of serine hydrolases and serum albumin in alisol B 23-acetate hydrolysis in humans” (Frontiers in Pharmacology, 2023):

Assays:
hBchE [1] = target: T1, hBchE (Homo sapiens, UniProt P06276); experiment: Kinetic analysis of AB23A hydrolysis in hBchE; format: in vitro ADME; conditions: 1 h incubation
T1 construct: purchased Sigma-Aldrich Lot SLCG5158
Experimental: (§1) The enzymatic kinetics of AB23A hydrolysis in different tissue preparations (HLMs, HIMs, human plasma) and human recombinant enzymes (hCES1A, hCES2A, hSA, hBchE) were analyzed. The incubation system (200 μL) consisted of PBS, each tested enzyme, and AB23A (ranging from 0 to 1,000 μM). After incubating for 1 h, the supernatants were then used for LC-UV analysis. The kinetic parameters of AB23A hydrolysis were fitted by the following Michaelis−Menten Eq. 1 ([Zhang et al., 2022]). V=(Vmax×[S])⁄(Km+[S]) (1) Here, K m is the Michaelis constant of AB23A hydrolysis, V max is the maximum velocity of AB23A hydrolysis, V max /K m is used to calculate the intrinsic clearance (CL int ).

hCES1A = target: T2, hCES1A (Homo sapiens, UniProt P23141); experiment: Kinetic analysis of AB23A hydrolysis in hCES1A; format: in vitro ADME; conditions: 1 h incubation
T2 construct: 10xHis; made in house; host or cells: HEK293-F cells, pTT5 vector, purified from conditioned medium
T2 sequence (P23141 18-563): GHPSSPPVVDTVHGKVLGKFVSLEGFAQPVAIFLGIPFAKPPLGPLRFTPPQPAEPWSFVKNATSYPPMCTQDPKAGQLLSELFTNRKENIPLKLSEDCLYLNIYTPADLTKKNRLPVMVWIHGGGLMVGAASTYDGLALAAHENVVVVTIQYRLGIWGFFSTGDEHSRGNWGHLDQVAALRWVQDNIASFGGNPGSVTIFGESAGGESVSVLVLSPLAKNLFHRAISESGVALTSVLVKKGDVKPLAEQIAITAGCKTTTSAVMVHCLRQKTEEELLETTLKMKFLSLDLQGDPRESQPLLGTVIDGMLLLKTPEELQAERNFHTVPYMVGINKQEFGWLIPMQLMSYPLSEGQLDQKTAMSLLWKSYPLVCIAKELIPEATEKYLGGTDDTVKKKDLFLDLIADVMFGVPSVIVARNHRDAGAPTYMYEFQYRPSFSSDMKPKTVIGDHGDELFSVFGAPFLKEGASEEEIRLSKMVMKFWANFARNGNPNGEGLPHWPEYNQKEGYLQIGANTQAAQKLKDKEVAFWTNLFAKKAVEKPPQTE
Experimental: as §1

[2] = Stability of AB23A in PBS under physiological conditions; format: physicochemical; conditions: pH 7.4 at 37°C
Experimental: AB23A and its hydrolytic metabolite were separated by ACQUITY UPLC I-Class plus system (Waters Corporation, Milford, United States) coupled with ACQUITY UPLC HSS T3 (100 mm × 2.1 mm, 1.8 μm, Waters, United States), and identified by using Q-Exactive quadru-pole-Orbitrap mass spectrometer. The mobile phases consisted of 0.1% formic acid in water (A) and acetonitrile (B) with the elution gradients were as follows: 0–2 min, 5% B, 2–4 min, 5%–30% B, 4–8 min, 30%–50% B, 8–10 min, 50%–80% B, 10–14 min, 80%–100%, 14–15 min, 100% B, 15–15.1 min, 100%–5% B, 15.1–16 min, 5% B. The flow rate was set at 0.35 mL/min, while the temperature of chromatographic column was maintained at 45°C. The mass range was set from m/z 80 to 1,200. Other MS conditions were as follows: Resolution and AGC target were set at 30000 and 1e^6, the maximum IT was 50 ms and loop count was set 10. (N) CE/stepped (N)CE was set 10, 20, 40 ev. All data were analyzed by PeakView 2.2 software and Thermo Xcalibur.
The incubation conditions were as follows: the classic incubation system included 100 mM potassium phosphate buffer (PBS, pH 7.4), enzyme sources, and AB23A. In all incubations, PBS and enzyme sources were pre-incubation at 37 °C for 3 min and the reaction was started by adding AB23A (the organic solvent content at most 1%). […]

hCES2A = target: T3, hCES2A (Homo sapiens, UniProt O00748); experiment: Kinetic analysis of AB23A hydrolysis in hCES2A; format: in vitro ADME; conditions: 1 h incubation
T3 construct: 10xHis; made in house; host or cells: HEK293-F cells, pTT5 vector, purified from conditioned medium
T3 sequence (O00748 27-559): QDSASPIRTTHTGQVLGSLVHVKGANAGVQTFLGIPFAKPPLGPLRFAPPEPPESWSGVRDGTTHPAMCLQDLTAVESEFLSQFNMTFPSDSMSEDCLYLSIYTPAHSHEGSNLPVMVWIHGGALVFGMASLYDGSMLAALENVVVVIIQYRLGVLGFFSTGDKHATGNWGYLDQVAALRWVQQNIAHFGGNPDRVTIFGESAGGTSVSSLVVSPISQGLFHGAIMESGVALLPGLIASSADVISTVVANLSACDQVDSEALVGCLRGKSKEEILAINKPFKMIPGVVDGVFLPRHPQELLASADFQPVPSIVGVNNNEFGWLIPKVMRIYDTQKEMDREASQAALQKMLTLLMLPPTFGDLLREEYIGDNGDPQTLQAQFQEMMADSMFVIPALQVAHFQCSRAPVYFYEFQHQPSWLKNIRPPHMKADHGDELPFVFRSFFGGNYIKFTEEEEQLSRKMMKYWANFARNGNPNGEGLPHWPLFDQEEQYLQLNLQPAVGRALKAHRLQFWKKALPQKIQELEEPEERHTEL
Experimental: as §1

hSA = target: T4, hSA (Homo sapiens, UniProt P02768); experiment: Reaction phenotyping assay of AB23A hydrolysis, hSA; format: in vitro ADME; conditions: hSA 500 μg/mL (Figure 3), AB23A 20 μM, 60 min, pH 7.4 at 37°C
T4 construct: purchased Sigma-Aldrich Lot#SLCC9268
T4 sequence (P02768 25-609): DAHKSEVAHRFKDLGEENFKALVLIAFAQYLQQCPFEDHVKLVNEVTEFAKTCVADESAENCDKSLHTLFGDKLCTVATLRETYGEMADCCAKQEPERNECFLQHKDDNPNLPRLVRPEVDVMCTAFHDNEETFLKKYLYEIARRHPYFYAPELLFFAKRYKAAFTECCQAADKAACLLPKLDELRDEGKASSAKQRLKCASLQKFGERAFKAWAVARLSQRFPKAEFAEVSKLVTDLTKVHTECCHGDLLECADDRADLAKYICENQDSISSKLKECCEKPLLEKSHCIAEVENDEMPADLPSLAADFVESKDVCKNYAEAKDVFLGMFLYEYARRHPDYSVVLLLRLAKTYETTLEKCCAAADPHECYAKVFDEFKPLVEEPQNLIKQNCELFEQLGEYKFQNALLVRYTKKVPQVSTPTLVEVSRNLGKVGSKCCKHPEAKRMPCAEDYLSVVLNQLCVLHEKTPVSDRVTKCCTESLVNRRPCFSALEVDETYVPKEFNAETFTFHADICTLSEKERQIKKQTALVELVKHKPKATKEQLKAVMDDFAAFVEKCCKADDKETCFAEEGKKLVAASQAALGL
Experimental: The hydrolytic rates of AB23A in different human recombinant enzymes (hCES1A, hCES2A, hPL, hIAH1, hNotum, hAchE, hBchE, hSA, hCTSA, hMAGL) were assayed. […] After incubation for 1 h at 37°C, ice-cold acetonitrile was added to terminate the reaction and precipitate proteins. The supernatants by centrifuging were used to quantify the formation rates of AB by LC-UV analysis. The detection wavelength of AB was 196 nm.

hBchE [3] = target: T1, hBchE; experiment: Reaction phenotyping assay of AB23A hydrolysis, hBchE; format: in vitro ADME; conditions: hBchE 5 μg/mL, AB23A 20 μM, 60 min, pH 7.4 at 37°C
Experimental: The hydrolytic rates of AB23A in different human recombinant enzymes (hCES1A, hCES2A, hPL, hIAH1, hNotum, hAchE, hBchE, hSA, hCTSA, hMAGL) were assayed. The incubation system included PBS, each tested enzyme (5 μg/mL, final concentration), and AB23A (20 μM). After incubation for 1 h at 37°C, ice-cold acetonitrile was added to terminate the reaction and precipitate proteins. The supernatants by centrifuging were used to quantify the formation rates of AB by LC-UV analysis. The detection wavelength of AB was 196 nm.

T1 sequence (P06276 29-602): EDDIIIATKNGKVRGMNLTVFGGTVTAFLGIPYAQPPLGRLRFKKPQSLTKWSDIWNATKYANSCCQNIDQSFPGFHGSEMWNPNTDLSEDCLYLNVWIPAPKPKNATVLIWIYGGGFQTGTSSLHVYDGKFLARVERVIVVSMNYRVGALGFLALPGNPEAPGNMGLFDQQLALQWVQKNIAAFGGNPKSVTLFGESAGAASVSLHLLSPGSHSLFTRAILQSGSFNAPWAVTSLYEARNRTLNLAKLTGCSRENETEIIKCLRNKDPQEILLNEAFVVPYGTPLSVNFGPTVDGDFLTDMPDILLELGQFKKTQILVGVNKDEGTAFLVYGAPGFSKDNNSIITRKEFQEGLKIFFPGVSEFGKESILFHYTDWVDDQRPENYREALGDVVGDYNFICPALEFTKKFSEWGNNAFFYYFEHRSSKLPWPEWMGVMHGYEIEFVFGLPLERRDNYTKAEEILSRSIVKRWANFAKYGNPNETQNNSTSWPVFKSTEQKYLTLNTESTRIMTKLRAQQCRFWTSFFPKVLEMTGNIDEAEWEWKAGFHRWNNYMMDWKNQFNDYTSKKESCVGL

Compound: CC(=O)O[C@H](C[C@@H](C)C1=C2C[C@H](O)C3[C@@]4(C)CCC(=O)C(C)(C)C4CC[C@]3(C)[C@@]2(C)CC1)[C@H]1OC1(C)C (stereo partly drawn) [AB23A, Alisol B 23-acetate]
- K m of AB23A hydrolysis (hBchE [1]): 35.78 ± 3.40 µM
- K m of AB23A hydrolysis (hCES1A): 190.80 ± 31.41 µM
- Stability in PBS [2]: very stable
- K m of AB23A hydrolysis (hCES2A): 58.96 ± 2.41 µM
- Hydrolytic rate (formation of AB) in reaction phenotyping (hSA): also catalyzed this hydrolytic reaction
- Hydrolytic rate (formation of AB) in reaction phenotyping (hBchE [3]): faster hydrolytic rate
